Results as given in patent publication US20090239841A1, “Diaryl Ureas as CB1 Antagonists” (priority 2004, published 2009).

target: T1, hCB1 (Homo sapiens, UniProt P21554); experiment: Agonist-induced GTP binding (GTPγ35S) assay at CB1, Example 8; format: biochemical; conditions: IC50 at CB1, determined as described in Example 8; read-out: IC50
T1 construct: made in house; host or cells: Sf9 insect cells (baculovirus), P2 membranes
Method in brief: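 Membranes from Sf9 cells co-expressing hCB1 and heterotrimeric G-protein (10 μg protein) in Tris pH 7.4 buffer with 5 μM GDP. Test compounds (10^−10–10^−5 M) competed against 1 nM CP55,940 with […] GTPγ35S, 60 min at room temperature. Filter-bound radioactivity by scintillation, expressed as percent above basal.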

T1 sequence (P21554 whole entry): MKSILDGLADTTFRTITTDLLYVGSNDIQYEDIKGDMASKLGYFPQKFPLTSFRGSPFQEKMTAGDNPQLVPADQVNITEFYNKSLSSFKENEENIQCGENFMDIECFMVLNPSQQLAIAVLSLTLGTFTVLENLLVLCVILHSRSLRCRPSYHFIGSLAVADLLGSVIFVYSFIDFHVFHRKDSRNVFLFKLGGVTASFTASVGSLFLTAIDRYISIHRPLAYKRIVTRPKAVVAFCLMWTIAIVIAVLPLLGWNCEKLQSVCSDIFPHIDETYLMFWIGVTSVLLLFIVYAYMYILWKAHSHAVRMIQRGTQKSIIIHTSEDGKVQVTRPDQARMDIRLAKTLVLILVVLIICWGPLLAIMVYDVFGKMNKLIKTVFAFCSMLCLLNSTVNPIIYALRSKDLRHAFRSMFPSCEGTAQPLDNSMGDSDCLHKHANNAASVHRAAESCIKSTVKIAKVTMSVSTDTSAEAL

IC50 [nM] | SMILES
< 2000 | CCC(=O)c1ccc(NC(=O)Nc2cccc(C)c2)cc1 [Compound 468, 1-(3-methylphenyl)-3-(4-propionylphenyl)urea]
< 2000 | O=C(Nc1ccccc1)Nc1ccc2c(c1)CCC2 [Compound 316, 1-(2,3-dihydro-1H-inden-5-yl)-3-phenylurea]
< 2000 | CCOC(=O)c1ccc(NC(=O)Nc2cccc(OC)c2)cc1 [Compound 593, ethyl 4-({[(3-methoxyphenyl)amino]carbonyl}amino)benzoate]
< 2000 | COc1ccc(NC(=O)Nc2cc(F)cc(F)c2)cc1 [Compound 701, 1-(3,5-difluorophenyl)-3-(4-methoxyphenyl)urea]
< 2000 | CCc1ccc(NC(=O)Nc2ccc(S(C)(=O)=O)cc2)cc1 [Compound 501, 1-(4-ethylphenyl)-3-[4-(methylsulfonyl)phenyl]urea]
< 2000 | CCCc1ccc(NC(=O)Nc2cccc(C(=O)OCC)c2)cc1 [Compound 652, ethyl 3-({[(4-propylphenyl)amino]carbonyl}amino)benzoate]
< 2000 | COc1ccc(NC(=O)Nc2ccc(C)c(F)c2)cc1 [Compound 615, 1-(3-fluoro-4-methylphenyl)-3-(4-methoxyphenyl)urea]
< 2000 | O=C(Nc1ccc(F)cc1)Nc1ccc(OC(F)F)cc1 [Compound 373, 1-[4-(difluoromethoxy)phenyl]-3-(4-fluorophenyl)urea]
< 2000 | O=C(Nc1ccc(OC(F)F)cc1)Nc1ccc(Cl)cn1 [Compound 634, 1-(5-chloropyridin-2-yl)-3-[4-(difluoromethoxy)phenyl]urea]
< 2000 | CC(C)Oc1cccc(NC(=O)Nc2cccc(F)c2)c1 [Compound 363, 1-(3-fluorophenyl)-3-(3-isopropoxyphenyl)urea]
< 2000 | COCc1cccc(NC(=O)Nc2ccc(C(C)C)cc2)c1 [Compound 571, 1-(4-isopropylphenyl)-3-[3-(methoxymethyl)phenyl]urea]
< 2000 | CC(=O)c1ccc(NC(=O)Nc2ccc(Cl)cc2)cc1 [Compound 344, 1-(4-acetylphenyl)-3-(4-chlorophenyl)urea]
< 2000 | CC(C)Oc1ccc(NC(=O)Nc2ccc(F)c(F)c2)cc1 [Compound 694, 1-(3,4-difluorophenyl)-3-(4-isopropoxyphenyl)urea]
< 2000 | CC(=O)c1cccc(NC(=O)Nc2ccc(CC#N)cc2)c1 [Compound 504, 1-(3-acetylphenyl)-3-[4-(cyanomethyl)phenyl]urea]
< 2000 | Cc1ccc(NC(=O)Nc2cccc(OC(F)F)c2)c(C)c1 [Compound 711, 1-[3-(difluoromethoxy)phenyl]-3-(2,4-dimethylphenyl)urea]
< 2000 | CC(C)Oc1ccc(NC(=O)Nc2ccc(OC(F)(F)F)cc2)cc1 [Compound 538, 1-(4-isopropoxyphenyl)-3-[4-(trifluoromethoxy)phenyl]urea]
< 2000 | CCOc1ccc(NC(=O)Nc2ccc(F)c(F)c2)cc1 [Compound 619, 1-(3,4-difluorophenyl)-3-(4-ethoxyphenyl)urea]
< 2000 | CCCOc1ccc(NC(=O)Nc2cccc(C(=O)OCC)c2)cc1 [Compound 671, ethyl 3-({[(4-propoxyphenyl)amino]carbonyl}amino)benzoate]
< 2000 | COC(=O)c1ccc(NC(=O)Nc2cccc(O)c2)cc1 [Compound 745, methyl 4-({[(3-hydroxyphenyl)amino]carbonyl}amino)benzoate]
< 2000 | CCc1ccc(NC(=O)Nc2ccc(OC(C)C)cc2)cc1 [Compound 403, 1-(4-ethylphenyl)-3-(4-isopropoxyphenyl)urea]
< 2000 | CC(C)Oc1ccc(NC(=O)Nc2cccc(F)c2)cc1 [Compound 367, 1-(3-fluorophenyl)-3-(4-isopropoxyphenyl)urea]
< 2000 | CCOc1ccc(NC(=O)Nc2ccc(F)c(C)c2)cc1 [Compound 617, 1-(4-ethoxyphenyl)-3-(4-fluoro-3-methylphenyl)urea]
< 2000 | CC(=O)c1ccc(NC(=O)Nc2cccc(OC(F)F)c2)cc1 [Compound 426, 1-(4-acetylphenyl)-3-[3-(difluoromethoxy)phenyl]urea]

same assay, conditions: Table I; IC50 at CB1, GTP binding with 1 nM CP55,940; read-out: IC50

IC50 [nM] | SMILES
< 2000 | CCCc1ccc(NC(=O)Nc2ccccc2)cc1 [Compound 45, N-phenyl-N′-(4-propylphenyl)urea]
< 2000 | CCc1ccc(NC(=O)Nc2ccc(CO)cc2)cc1 [Compound 28, N-(4-ethylphenyl)-N′-[4-(hydroxymethyl)phenyl]urea]

same assay, conditions: Table II; IC50 at CB1, GTP binding with 1 nM CP55,940; read-out: IC50

IC50 [nM] | SMILES
< 2000 | CC(=O)c1ccc(NC(=O)Nc2cccc(Br)c2)cc1 [Compound 201, N-(4-acetylpheny-)-N′-(3-bromophenyl)urea]
< 2000 | CC(=O)c1cccc(NC(=O)Nc2ccc(OC(C)C)cc2)c1 [Compound 281, N-(3-acetylphenyl)-N′-(4-isopropoxyphenyl)urea]
< 2000 | CC(C)Oc1ccc(NC(=O)Nc2cccc(C#N)c2)cc1 [Compound 280, N-(3-cyanophenyl)-N′-(4-isopropoxyphenyl)urea]
< 2000 | Cc1cccc(NC(=O)Nc2ccc(OC(C)C)cc2)c1 [Compound 213, N-(4-isopropoxyphenyl)-N′-(3-methylphenyl)urea]
< 2000 | O=C(Nc1cccc(Cl)c1)Nc1cccc(OC(F)F)c1 [Compound 255, N-(3-chlorophenyl)-N′-[3-(difluoromethoxy)phenyl]urea]
< 2000 | CCOc1ccc(NC(=O)Nc2cccc(C#N)c2)cc1 [Compound 265, N-(3-cyanophenyl)-N′-(4-ethoxyphenyl)urea]
< 2000 | CC(C)c1ccc(NC(=O)Nc2ccc(C#N)cc2)cc1 [Compound 193, N-(4-cyanophenyl)-N′-(4-isopropylphenyl)urea]
< 2000 | COc1cccc(NC(=O)Nc2ccc(C(C)=O)cc2)c1 [Compound 258, N-(4-acetylphenyl)-N′-(3-methoxyphenyl)urea]
< 2000 | Cc1cc(NC(=O)Nc2ccc(OC(F)F)cc2)nc(C)n1 [Compound 78, N-[4-(difluoromethoxy)phenyl]-N′-(2,6-dimethylpyrimidin-4-yl)urea]
< 2000 | O=C(Nc1ccc(OC(F)F)cc1)Nc1ccc(S(=O)(=O)N2CCCCC2)cc1 [Compound 110, N-[4-(difluoromethoxy)phenyl]-N′-[4-(piperidin-1-ylsulfonyl)phenyl]urea]
< 2000 | COCc1ccc(NC(=O)Nc2ccc(Cl)cc2)cc1 [Compound 242, N-(4-chlorophenyl)-N′-[4-(methoxymethyl)phenyl]urea]
< 2000 | CC(C)Oc1ccc(NC(=O)Nc2cccc(Cl)c2)cc1 [Compound 251, N-(3-chlorophenyl)-N′-(4-isopropoxyphenyl)urea]
< 2000 | COc1nc(-c2cccc(NC(=O)Nc3ccc(OC(F)F)cc3)c2)ncc1C(F)(F)F [Compound 118, N-[4-(difluoromethoxy)phenyl]-N′-{3-[4-methoxy-5-(trifluoromethyl)pyrimidin-2-yl]phenyl}urea]
< 2000 | CC(C)Oc1cccc(NC(=O)Nc2cccc(Cl)c2)c1 [Compound 247, N-(3-chlorophenyl)-N′-(3-isopropoxyphenyl)urea]
< 2000 | CCC(CC)Oc1ccc(-c2cccc(NC(=O)Nc3ccc(OC(F)F)cc3)c2)nc1NC [Compound 122, N-[4-(difluoromethoxy)phenyl]-N′-{3-[5-(1-ethylpropoxy)-6-(methylamino)pyridin-2-yl]phenyl}urea]
